Measured values from PubChem BioAssay (NCI).
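Assay format: 96-well plates, 48-hour exposure. TGI is the concentration that stops growth completely.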

How the values were obtained:
Test in all cases: DTP human tumour cell line panel, 48 h
SNB-75 CNS = system: SNB-75 CNS
MALME-3M melanoma = system: MALME-3M melanoma
SK-MEL-2 melanoma = system: SK-MEL-2 melanoma
SF-295 CNS = system: SF-295 CNS
CCRF-CEM leukemia = system: CCRF-CEM leukemia
MDA-N = system: MDA-N
A549 NSCLC = system: A549 NSCLC
HL-60(TB) leukemia = system: HL-60(TB) leukemia
SN12C renal = system: SN12C renal
NCI-H522 lung = system: NCI-H522 lung
OVCAR-3 ovarian = system: OVCAR-3 ovarian
HCT-15 colon = system: HCT-15 colon
HT29 colon = system: HT29 colon
PC-3 prostate = system: PC-3 prostate
NCI/ADR-RES ovarian = system: NCI/ADR-RES ovarian
NCI-H460 lung = system: NCI-H460 lung
K-562 leukemia = system: K-562 leukemia
SR leukemia = system: SR leukemia
KM12 colon = system: KM12 colon
SF-268 CNS = system: SF-268 CNS
UACC-257 melanoma = system: UACC-257 melanoma
RXF 393 renal = system: RXF 393 renal
ACHN renal = system: ACHN renal
MDA-MB-435 = system: MDA-MB-435
OVCAR-4 ovarian = system: OVCAR-4 ovarian
SNB-19 CNS = system: SNB-19 CNS
BT-549 breast = system: BT-549 breast
U251 CNS = system: U251 CNS
TK-10 renal = system: TK-10 renal
HCT-116 colon = system: HCT-116 colon
HCC-2998 colon = system: HCC-2998 colon
MDA-MB-231 breast = system: MDA-MB-231 breast
EKVX NSCLC = system: EKVX NSCLC
SF-539 CNS = system: SF-539 CNS
MCF7 breast = system: MCF7 breast
LOX IMVI melanoma = system: LOX IMVI melanoma
OVCAR-5 ovarian = system: OVCAR-5 ovarian
SK-MEL-28 melanoma = system: SK-MEL-28 melanoma
T-47D breast = system: T-47D breast
UO-31 renal = system: UO-31 renal
SW-620 colon = system: SW-620 colon
RPMI-8226 leukemia = system: RPMI-8226 leukemia
OVCAR-8 ovarian = system: OVCAR-8 ovarian
NCI-H226 lung = system: NCI-H226 lung
COLO 205 colon = system: COLO 205 colon
SK-MEL-5 melanoma = system: SK-MEL-5 melanoma
IGROV1 ovarian = system: IGROV1 ovarian
786-0 renal = system: 786-0 renal
M14 melanoma = system: M14 melanoma
MOLT-4 leukemia = system: MOLT-4 leukemia
HOP-62 NSCLC = system: HOP-62 NSCLC
NCI-H23 lung = system: NCI-H23 lung
HOP-92 NSCLC = system: HOP-92 NSCLC
UACC-62 melanoma = system: UACC-62 melanoma
CAKI-1 renal = system: CAKI-1 renal
DU-145 prostate = system: DU-145 prostate
HS 578T breast = system: HS 578T breast

Measured: TGI

COc1cc2c3c(n(Cc4ccccc4)c(=O)c2cc1OC)-c1ccccc1C3=O
> 100 µM: all assays above

CC1(C)C[C@H](O)[C@H](O)[C@]23C(=O)O[C@H](O)[C@H]2C(C=O)=CC[C@@H]13
not listed: SK-MEL-2 melanoma | OVCAR-4 ovarian | OVCAR-5 ovarian | M14 melanoma | HOP-92 NSCLC
> 100 µM: all other assays above
